Where two headings read alike, the source gives them in different places.
What was measured:
HBV [1] = test: In vitro antiviral assay: anti-HBV replication in HepAD38 cells (extracellular HBV DNA by QPCR); assay type: cell-based, hepatitis B virus (genotype D, serotype ayw); conditions: 7 days incubation, extracellular HBV DNA by QPCR, read-out: Anti-HBV EC50
How it was run: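 Read-out is extracellular HBV DNA (copies/mL, QPCR standard curve) after 7-day exposure of tet-free HepAD38 cells to 10-fold dilutions from 1 μM down to 10 pM. Values normalised to DMSO vehicle; EC50 from 4-parameter nonlinear regression, with entecavir validating each run.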

HepG2 cells = test: In vitro cytotoxicity assay (MTT cell viability) in HepG2 cells; assay type: cell-based, human
How it was run: (§1)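 CC50 was derived by 4-parameter fit of viability relative to vehicle controls, measured as MTT formazan absorbance at 492 nm after 3–4 h of reagent and DMSO solubilization. Before that, HepG2 cells seeded overnight at 20,000/well were incubated 7 days at 37°C with compound from 30 μM down to 1.0 nM in half-log steps.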

[2] = as above; assay type: cell-based, human; conditions: human
How it was run: as §1

HBV [3] = conditions: Phase 1b clinical trial, 600 mg bid dosing for 29 days; cited from earlier work
[4] = Hepatitis B virus, HePAD38, 168 h

| Compound | EC50 (HBV [1]; [4]) [µM] | CC50 at 7 days [2] [µM] | also measured |
| --- | --- | --- | --- |
| Cc1cc(NC(=O)c2c(C)c(C(=O)C(=O)NC3CC(S(C)(=O)=O)C3)n(C)c2C)ccc1F (centres unmarked) [Example 32, N-(4-fluoro-3-methylphenyl)-1,2,4-trimethyl-5-(2-(((1r,3r)-3-(methylsulfonyl)cyclobutyl)amino)-2-oxoacetyl)-1H-pyrrole-3-carboxamide] |  |  | EC50 (HBV [1]): 0.05 to 0.499 µM; CC50 (HepG2 cells; human, 7 days): > 30 µM |
| Cc1cc(NC(=O)c2c(C)c(C(=O)C(=O)NC3(C)CC(OP(=O)(O)O)C3)n(C)c2C)ccc1F (centres unmarked) [Example 64, sodium (1s,3s)-3-(2-(4-((4-fluoro-3-methylphenyl)carbamoyl)-1,3,5-trimethyl-1H-pyrrol-2-yl)-2-oxoacetamido)-3-methylcyclobutyl phosphate] | > 1 |  | CC50 (HepG2 cells; HepG2 cells, 7 days incubation, MTT, read-out: HepG2 CC50): > 30 µM |
| Cc1cc(NC(=O)c2c(C)c(C(=O)C(=O)N[C@@H]3C[C@@H](C(=O)O)N(C)C3)n(C)c2C)ccc1F [Example 171, (2S,4R)-4-(2-(4-((4-fluoro-3-methylphenyl)carbamoyl)-1,3,5-trimethyl-1H-pyrrol-2-yl)-2-oxoacetamido)-1-methylpyrrolidine-2-carboxylic acid] | > 1 | > 30 |  |
| Cc1cc(NC(=O)c2c(C)c(C(=O)C(=O)NC3CCCN(CC(=O)O)C3)n(C)c2C)ccc1F (centres unmarked) [Example 172, 2-(3-(2-(4-((4-fluoro-3-methylphenyl)carbamoyl)-1,3,5-trimethyl-1H-pyrrol-2-yl)-2-oxoacetamido)piperidin-1-yl)acetic acid] | > 1 | > 30 |  |
| Cc1cc(NC(=O)c2c(C)c(C(=O)C(=O)N[C@H]3CN[C@H](C(=O)O)C3)n(C)c2C)ccc1F [Example 173, (2S,4R)-4-(2-(4-((4-fluoro-3-methylphenyl)carbamoyl)-1,3,5-trimethyl-1H-pyrrol-2-yl)-2-oxoacetamido)pyrrolidine-2-carboxylic acid] | 0.5 to 1 | > 30 |  |
| Cc1cc(NC(=O)c2c(C)c(C(=O)C(=O)N[C@]3(C)C[C@H](O)C3)n(C)c2-c2nccs2)ccc1F [Example 174, N-(4-fluoro-3-methylphenyl)-5-(2-(((1s,3s)-3-hydroxy-1-methylcyclobutyl)amino)-2-oxoacetyl)-1,4-dimethyl-2-(thiazol-2-yl)-1H-pyrrole-3-carboxamide] | 0.5 to 1 | > 30 |  |
| Cc1cc(NC(=O)c2c(C)c(C(=O)C(=O)N[C@H]3CC[C@@H](S(C)(=O)=O)CC3)n(C)c2-c2nccs2)ccc1F [Example 175, N-(4-fluoro-3-methylphenyl)-1,4-dimethyl-5-(2-(((1s,4s)-4-(methylsulfonyl)cyclohexyl)amino)-2-oxoacetyl)-2-(thiazol-2-yl)-1H-pyrrole-3-carboxamide] | > 1 | > 30 |  |
| Cc1cc(NC(=O)c2c(C)c(C(=O)C(=O)N[C@]3(C)CC[C@H](O)CC3)n(C)c2-c2nccs2)ccc1F [Example 176, N-(4-fluoro-3-methylphenyl)-5-(2-(((1s,4s)-4-hydroxy-1-methylcyclohexyl)amino)-2-oxoacetyl)-1,4-dimethyl-2-(thiazol-2-yl)-1H-pyrrole-3-carboxamide] | 0.05 to 0.499 | > 30 |  |
| Cc1cc(NC(=O)c2c(C)c(C(=O)C(=O)N[C@H]3CC[C@@H](O)CC3)n(C)c2-c2nccs2)ccc1F [Example 177, N-(4-fluoro-3-methylphenyl)-5-(2-(((1s,4s)-4-hydroxycyclohexyl)amino)-2-oxoacetyl)-1,4-dimethyl-2-(thiazol-2-yl)-1H-pyrrole-3-carboxamide] | > 1 | > 30 |  |
| Cc1cc(NC(=O)c2c(C)c(C(=O)C(=O)NCC(C)(C)O)n(C)c2-c2nccs2)ccc1F [Example 178, N-(4-fluoro-3-methylphenyl)-5-(2-((2-hydroxy-2-methylpropyl)amino)-2-oxoacetyl)-1,4-dimethyl-2-(thiazol-2-yl)-1H-pyrrole-3-carboxamide] | > 1 | > 30 |  |
| Cc1cc(NC(=O)c2c(C)c(C(=O)C(=O)N[C@@H]3CN[C@H](C(=O)O)C3)n(C)c2C)ccc1F [Example 179, (2S,4S)-4-(2-(4-((4-fluoro-3-methylphenyl)carbamoyl)-1,3,5-trimethyl-1H-pyrrol-2-yl)-2-oxoacetamido)pyrrolidine-2-carboxylic acid] | > 1 | > 30 |  |
| Cc1cc(NC(=O)c2c(C)c(C(=O)C(=O)N[C@@H]3CCN[C@H](C(=O)O)C3)n(C)c2C)ccc1F [Example 180, (2S,4R)-4-(2-(4-((4-fluoro-3-methylphenyl)carbamoyl)-1,3,5-trimethyl-1H-pyrrol-2-yl)-2-oxoacetamido)piperidine-2-carboxylic acid] | > 1 | > 30 |  |
| Cc1cc(NC(=O)c2c(C)c(C(=O)C(=O)N[C@]3(C)C[C@H](O)C3)n(C)c2-c2ccsc2)ccc1F [Example 181, N-(4-fluoro-3-methylphenyl)-5-(2-(((1s,3s)-3-hydroxy-1-methylcyclobutyl)amino)-2-oxoacetyl)-1,4-dimethyl-2-(thiophen-3-yl)-1H-pyrrole-3-carboxamide] | 0.5 to 1 | 5 to 30 |  |
| Cc1cc(NC(=O)c2c(C)c(C(=O)C(=O)N[C@H]3CC[C@@H](S(C)(=O)=O)CC3)n(C)c2-c2ccsc2)ccc1F [Example 182, N-(4-fluoro-3-methylphenyl)-1,4-dimethyl-5-(2-(((1s,4s)-4-(methylsulfonyl)cyclohexyl)amino)-2-oxoacetyl)-2-(thiophen-3-yl)-1H-pyrrole-3-carboxamide] | > 1 | > 30 |  |
| Cc1cc(NC(=O)c2c(C)c(C(=O)C(=O)N[C@]3(C)CC[C@H](O)CC3)n(C)c2-c2ccsc2)ccc1F [Example 183, N-(4-fluoro-3-methylphenyl)-5-(2-(((1s,4s)-4-hydroxy-1-methylcyclohexyl)amino)-2-oxoacetyl)-1,4-dimethyl-2-(thiophen-3-yl)-1H-pyrrole-3-carboxamide] | 0.05 to 0.499 | > 30 |  |
| Cc1cc(NC(=O)c2c(C)c(C(=O)C(=O)N[C@H]3CC[C@@H](O)CC3)n(C)c2-c2ccsc2)ccc1F [Example 184, N-(4-fluoro-3-methylphenyl)-5-(2-(((1s,4s)-4-hydroxycyclohexyl)amino)-2-oxoacetyl)-1,4-dimethyl-2-(thiophen-3-yl)-1H-pyrrole-3-carboxamide] | > 1 | 5 to 30 |  |
| Cc1cc(NC(=O)c2c(C)c(C(=O)C(=O)NCC(C)(C)O)n(C)c2-c2ccsc2)ccc1F [Example 185, N-(4-fluoro-3-methylphenyl)-5-(2-((2-hydroxy-2-methylpropyl)amino)-2-oxoacetyl)-1,4-dimethyl-2-(thiophen-3-yl)-1H-pyrrole-3-carboxamide] | 0.5 to 1 | 5 to 30 |  |
| CCN(C(=O)C(=O)c1c(C)c(C(=O)Nc2ccc(F)c(C)c2)c(C)n1C)C(C)C [Example 186, 5-(2-(ethyl(isopropyl)amino)-2-oxoacetyl)-N-(4-fluoro-3-methylphenyl)-1,2,4-trimethyl-1H-pyrrole-3-carboxamide] | 0.5 to 1 | > 30 |  |
| Cc1cc(NC(=O)c2c(C)c(C(=O)C(=O)N3CCOCC3)n(C)c2C)ccc1F [Example 187, N-(4-fluoro-3-methylphenyl)-1,2,4-trimethyl-5-(2-morpholino-2-oxoacetyl)-1H-pyrrole-3-carboxamide] | 0.5 to 1 | > 30 |  |
| CCC(CC)NC(=O)C(=O)c1c(C)c(C(=O)Nc2ccc(F)c(C)c2)c(C)n1C [Example 188, N-(4-fluoro-3-methylphenyl)-1,2,4-trimethyl-5-(2-oxo-2-(pentan-3-ylamino)acetyl)-1H-pyrrole-3-carboxamide] | < 0.05 | 5 to 30 |  |
| O=C(Nc1cc(F)c(F)c(F)c1)c1ccc(F)c(S(=O)(=O)N2CCC(O)CC2)c1 [NVR 3-778] |  |  | reduction in HBV DNA (HBV [3]): −1.7 log 10 |

Reference: patent US20230107941A1, “HEPATITIS B CAPSID ASSEMBLY MODULATORS” (Venatorx Pharmaceuticals, Inc., priority 2019, published 2023)
